Values quoted from earlier work, collected in patent US6841573B2, “Use of arachidonic acid as a method of increasing skeletal muscle mass” (Molecular Nutrition, priority 2002, dated 2005).

Legend:
[1] = test system: intact rabbit muscle; conditions: unstimulated intact rabbit muscle, in-vitro
[2] = serum from forearm and kidney of human volunteers after direct infusion into brachial or renal artery
[3] = after oral 200 mg and 1.5 g supplemented arachidonic acid per day, human, drawn blood
[4] = 14C-labeled arachidonic acid, human skeletal muscle and kidney homogenates
[5] = after administering the precursor
[6] = molecular target: T1, cox-1 enzyme (Homo sapiens, UniProt P23219); conditions: by inhibiting the normal post-exercise increase in PGF2alpha
T1 construct: host or cells: skeletal muscle in vivo (endogenous enzyme)
T1 sequence (P23219 24-599): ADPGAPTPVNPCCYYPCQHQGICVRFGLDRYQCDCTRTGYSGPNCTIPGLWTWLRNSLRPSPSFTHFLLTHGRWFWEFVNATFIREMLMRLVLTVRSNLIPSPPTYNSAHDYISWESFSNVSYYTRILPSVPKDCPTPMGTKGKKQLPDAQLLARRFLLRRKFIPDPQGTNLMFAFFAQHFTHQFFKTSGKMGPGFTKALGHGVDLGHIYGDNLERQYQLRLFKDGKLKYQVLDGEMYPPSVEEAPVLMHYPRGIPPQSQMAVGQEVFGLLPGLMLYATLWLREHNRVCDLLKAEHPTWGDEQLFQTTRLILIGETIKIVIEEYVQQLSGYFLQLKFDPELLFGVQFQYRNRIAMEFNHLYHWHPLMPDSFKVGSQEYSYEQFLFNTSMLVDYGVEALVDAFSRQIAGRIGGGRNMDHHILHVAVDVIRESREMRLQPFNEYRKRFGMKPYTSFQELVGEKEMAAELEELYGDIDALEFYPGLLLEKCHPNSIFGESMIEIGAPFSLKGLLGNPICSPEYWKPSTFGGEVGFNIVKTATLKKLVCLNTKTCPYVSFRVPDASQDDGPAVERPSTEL

Row | Structure (SMILES) | effect on rates of protein synthesis [1] | also measured
1 | CCCCC[C@H](O)/C=C/[C@H]1C=CC(=O)[C@@H]1CCCCCCC(=O)O [prostaglandin A1] | increased rates of protein synthesis | 
2 | CCCCC/C=C\C/C=C\C/C=C\C/C=C\CCCC(=O)O [arachidonic acid] |  | labeled metabolites found in serum [2]: PGD2, PGE2, PGF2 alpha, 6-keto-PGF1 alpha and 13,14-dihydro-15-keto-PGE2 (Me) were all found; in-vitro secretion of LTB4 and PGE2 [3]: measurably increase; prostaglandins produced during incubation [4]: PGD2, PGE2, PGF2 alpha and 6-keto-PGF1 alpha
3 | C[C@]12CCC(=O)C=C1CC[C@@H]1[C@@H]2CC[C@]2(C)C(=O)CC[C@@H]12 [androstenedione] |  | period of subsequent decline of active hormone (testosterone) concentration [5]: three to four; time to peak concentration of active hormone (testosterone) [5]: ≤ 90 min
4 | CCCCC[C@H](O)/C=C/[C@@H]1[C@@H](C/C=C\CCCC(=O)O)[C@@H](O)C[C@H]1O [prostaglandin F2 alpha, PGF2alpha] | increased rates of protein synthesis | 
5 | CCCCC/C=C\C\C=C/C=C/C=C/[C@@H](SC[C@H](NC(=O)CC[C@H](N)C(=O)O)C(=O)NCC(=O)O)[C@@H](O)CCCC(=O)O [leukotriene C4] | failed to do so | 
6 | CCCCC/C=C\C\C=C/C=C/C=C/[C@@H](SC[C@H](N)C(=O)NCC(=O)O)[C@@H](O)CCCC(=O)O [leukotriene D4] | failed to do so | 
7 | CCCCC[C@H](O)/C=C/[C@H]1C(=O)C[C@H](O)[C@@H]1C/C=C\CCCC(=O)O [prostaglandin D2, PGD2] | failed to do so | 
8 | CCCCC[C@H](O)/C=C/[C@H]1[C@H](O)CC(=O)[C@@H]1C/C=C\CCCC(=O)O [prostaglandin E2, PGE2] | failed to do so | 
9 | CC(=O)Nc1ccc(O)cc1 [acetaminophen] |  | effect on anabolic response of muscle to resistance exercise [6]: profoundly diminish the anabolic response
